Measurements: patent US20240199624A1, “COMPOUNDS, COMPOSITIONS, AND METHODS” (CHDI Foundation, Inc., priority 2022, published 2024)

What was measured:
[1] = target: T1, MSH2 (human MutSbeta) (Homo sapiens, UniProt P43246); test: ATP binding and cross-linking assay (MSH2 subunit); details: [32P]-ATP UV cross-linking to MSH2 subunit of MutSbeta; read-out: cross-link assay IC50 MSH2
T1 construct: Msh2(1-934), Gene ID NP_000242.1
Method: (§1) ATP binding and cross-linking assay: Enzyme human MutSbeta (Msh2(1-934), Gene ID NP_000242.1, Msh3(1-1137), Gene ID J04810.1) was adjusted to 0.2 μM and, in experiments in the presence of 22 bp biotin-labeled DNA containing a GT-mismatch (purchased from Curia Global, TOP 5′-[…]-3′; BOT 3′-AGTAGCTAGGC - - - CGAAGTCTACC-5′-Biotin), pre-incubated with DNA at equimolar concentration for indicated time and temperature. All reagents were kept on ice. Enzyme was then incubated on ice for the indicated time with 5 nM γ-[^32P]-ATP (Hartmann Analytic, FP-301) or α-[^32P]-ATP (Perkin Elmer, NEG003H250UCSBF4 or Hartmann Analytic, FP-207) and addition of cold ATP (10 μM) or ADP (0.3 μM). The total volume was 20 μL and the samples were handled in Eppendorf reaction tubes. The assay buffer was 25 mM HEPES pH=7.5, 150 mM KCl, 5 mM MgCl2, 5 mM GSH, 0.01% Tween-20. All steps with radioactive ATP were conducted behind appropriate shielding. The samples were then placed on dry ice until they were frozen solid. […] The screen was analyzed in the imager (GE Healthcare, Fluorescent Image Analyzer, Typhoon FLA 7000, #5622514B), and the image was analyzed with imageJ software.

[2] = target: T2, MSH3 (human MutSbeta) (Homo sapiens, UniProt P20585); test: ATP binding and cross-linking assay (MSH3 subunit); details: [32P]-ATP UV cross-linking to MSH3 subunit of MutSbeta; read-out: cross-link assay IC50 MSH3
T2 construct: Msh3(1-1137), Gene ID J04810.1
T2 sequence (P20585 whole entry): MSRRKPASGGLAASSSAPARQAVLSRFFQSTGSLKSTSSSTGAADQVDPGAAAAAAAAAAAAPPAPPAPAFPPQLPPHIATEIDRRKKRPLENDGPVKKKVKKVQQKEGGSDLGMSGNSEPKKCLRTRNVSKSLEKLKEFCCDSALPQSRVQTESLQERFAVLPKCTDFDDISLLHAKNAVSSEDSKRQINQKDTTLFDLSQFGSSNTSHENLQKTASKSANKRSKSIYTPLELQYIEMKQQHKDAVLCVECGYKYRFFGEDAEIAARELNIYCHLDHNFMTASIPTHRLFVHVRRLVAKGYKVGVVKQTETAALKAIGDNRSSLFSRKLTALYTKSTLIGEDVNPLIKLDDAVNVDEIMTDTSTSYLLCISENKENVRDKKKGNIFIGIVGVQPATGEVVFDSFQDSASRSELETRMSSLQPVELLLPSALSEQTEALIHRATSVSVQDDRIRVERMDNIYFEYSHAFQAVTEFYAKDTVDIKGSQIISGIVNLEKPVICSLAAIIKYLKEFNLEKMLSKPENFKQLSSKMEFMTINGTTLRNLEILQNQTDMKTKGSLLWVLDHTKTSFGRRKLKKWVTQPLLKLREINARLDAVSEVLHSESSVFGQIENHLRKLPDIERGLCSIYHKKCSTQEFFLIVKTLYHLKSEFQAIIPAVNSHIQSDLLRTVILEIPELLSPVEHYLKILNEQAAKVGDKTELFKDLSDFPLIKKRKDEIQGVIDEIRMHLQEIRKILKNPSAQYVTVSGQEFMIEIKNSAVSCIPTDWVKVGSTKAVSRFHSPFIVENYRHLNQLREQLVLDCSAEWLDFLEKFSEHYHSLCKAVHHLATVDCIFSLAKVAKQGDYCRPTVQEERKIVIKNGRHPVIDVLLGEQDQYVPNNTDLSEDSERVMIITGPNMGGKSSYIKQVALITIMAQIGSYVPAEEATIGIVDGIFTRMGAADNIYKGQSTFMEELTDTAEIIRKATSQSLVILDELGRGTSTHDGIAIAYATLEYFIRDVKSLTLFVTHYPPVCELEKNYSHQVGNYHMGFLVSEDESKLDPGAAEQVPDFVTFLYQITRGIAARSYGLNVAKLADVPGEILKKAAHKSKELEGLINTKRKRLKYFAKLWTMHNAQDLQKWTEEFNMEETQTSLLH
T2 sequence (P43246 whole entry partner): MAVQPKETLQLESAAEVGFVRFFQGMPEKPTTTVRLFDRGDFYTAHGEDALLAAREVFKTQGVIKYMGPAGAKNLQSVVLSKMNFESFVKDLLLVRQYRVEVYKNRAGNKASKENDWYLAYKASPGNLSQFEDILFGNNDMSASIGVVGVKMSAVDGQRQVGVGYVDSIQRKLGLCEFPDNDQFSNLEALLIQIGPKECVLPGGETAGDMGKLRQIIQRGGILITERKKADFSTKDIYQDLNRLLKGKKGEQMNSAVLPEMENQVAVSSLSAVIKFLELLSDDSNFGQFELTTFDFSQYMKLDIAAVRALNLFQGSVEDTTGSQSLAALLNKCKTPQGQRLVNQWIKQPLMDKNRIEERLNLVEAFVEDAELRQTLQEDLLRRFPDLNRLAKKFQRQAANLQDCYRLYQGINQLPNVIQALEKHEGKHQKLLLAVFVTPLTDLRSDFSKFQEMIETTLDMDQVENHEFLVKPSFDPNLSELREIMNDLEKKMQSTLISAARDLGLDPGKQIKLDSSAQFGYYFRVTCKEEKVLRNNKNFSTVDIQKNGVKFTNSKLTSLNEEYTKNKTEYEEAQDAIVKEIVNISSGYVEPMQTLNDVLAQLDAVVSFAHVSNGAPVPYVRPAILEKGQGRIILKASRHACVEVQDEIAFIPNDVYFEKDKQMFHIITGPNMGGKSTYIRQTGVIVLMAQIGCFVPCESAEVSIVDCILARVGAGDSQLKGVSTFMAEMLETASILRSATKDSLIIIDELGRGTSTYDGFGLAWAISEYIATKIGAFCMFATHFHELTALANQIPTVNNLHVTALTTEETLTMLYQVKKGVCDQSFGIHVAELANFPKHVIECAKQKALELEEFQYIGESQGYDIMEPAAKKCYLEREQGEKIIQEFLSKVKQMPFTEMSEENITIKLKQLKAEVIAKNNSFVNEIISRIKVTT
Method: as §1

[3] = P33 SPA counter assay (absence of enzyme); details: interference with detection system
Method: P33 SPA counter assay: This assay was used in the absence of enzyme to determine whether the test compound interferes with the detection system. Otherwise, the same protocol and assay buffer as in the main SPA assay were applied (25 mM HEPES pH=7.5, 150 mM KCl, 2 mM MgCl2, 2 mM GSH, 0.01% Tween-20) and instead of enzyme addition, assay buffer was added. Hydrolysis of substrate (γ-[^33P]-ATP, 0.1 nM; Hartmann Analytic, FF-301; and cold ATP, 10 μM) to a similar level as under enzymatic conditions was achieved by incubation at 50° C. for 4 days. Decay of [^33P] with a half-life of 25.4 days was corrected by increasing the concentration of the labelled nucleotide with the appropriate factor; all steps with radioactive ATP were conducted behind appropriate shielding. After addition of pre-treated ATP substrate (10 μL) to the compounds and addition of buffer (10 μL, instead of enzyme), 20 μL of a 1:2 mix of ammonium molybdate (20 mg/mL Ammonium molybdate in 2.4M HCl) and SPA beads (ProteinA SPA beads from Perkin Elmer Cat #RPNQ0019 at 7.5 mg/mL+1% azide) was added per well and incubated at RT for 2 min. Then, 40 μL of 7 M CsCl and 0.1 M citrate was added per well and incubated for 1 h at room temperature before measuring on the MicroBeta (top read mode, 1 min per well). For full plate processing, all reagents were transferred with a pipettor (Selma, CyBio) apart from the final reagent (CsCl+citrate) which was added with a dispenser (MultiFlo, BioTek). Data analysis during assay development was done with Prism GraphPad, and IC50 fitting for whole compound plates was done with the in-house software Aplus.

T1 sequence (P43246 whole entry): as the sequence (P43246 whole entry partner) above
T1 sequence (P20585 whole entry partner): as the sequence (P20585 whole entry) above

Row | IC50 [1] [µM] | IC50 [2] [µM] | IC50 [3] [µM] | Compound
1 | 215 | 9 | > 200 | CCN1CCN(c2nc(Nc3ccc(Cl)cc3)c3nccnc3n2)CC1 [Compound 4, N-(4-Chlorophenyl)-2-(4-ethylpiperazin-1-yl)pteridin-4-amine]
2 | 120 | 5 | > 200 | Cc1ccc(Nc2nc(N3CCN(C)CC3)nc3nccnc23)cc1C [Compound 2, N-(3,4-dimethylphenyl)-2-(4-methylpiperazin-1-yl)pteridin-4-amine]
